Key:
[1] = test system: reverse transcription of the infected virus; test: Viral reverse transcription product (viral cDNA) in infected A3.01 cells, RT-qPCR; assay type: cell-based, HIV-1; conditions: 1.5 µM, 16 h after infection
Experimental: (§1) Fig 5 (A) Time-of-addition assay. […] Subsequently, the cells were treated with the compounds at the indicated time points (0, 1, 2, 4, 6, 8, 10, 12, 24, 30, 36, 42, and 48 h) after HIV-1 infection. The final concentrations of compounds are described in Materials and Methods. Viral activity according to the timing of drug addition was measured as F-Luc activity at 54 h after infection. The relative activities are represented as the mean ± SD (n = 3) compared with the activity observed 54 h post-infection. The relative time frames associated with each HIV-1 infection step are defined based on the time frame of susceptibility to the drug that blocks that particular infection step. […] At 16 h after infection, the viral reverse transcription (RT) product (viral cDNA) level was determined by quantitative real-time PCR (RT-qPCR) using gag and 18S rRNA primer sets and represented as the mean ± SD (n = 3) normalized against the amount of the 18S rRNA compared with the DMSO control. **P < 0.01 compared with the vehicle (DMSO). […] At 40 h after infection, cellular chromosomal DNA was purified, and the integrated proviral DNA was detected through nested Alu-PCR amplification.
(§2) The activity of HIV-1 RT was determined as previously described with some minor modifications ([66][–][68]). […] The relative levels of RT products were analyzed using the ΔΔCt-method, as described above. […]

HIV-1 integrase = biological target: T1, HIV-1 integrase (Human immunodeficiency virus type 1 group M subtype B, UniProt P04585); test: In vitro integrase assay; assay type: biochemical; conditions: 10 µM
T1 construct: purchased XpressBio
Experimental: as §1, §2

Tat protein = test: Nuclear localization of Tat protein, cell fractionation and western blotting; assay type: cell-based, HIV-1; conditions: 1.5 μM, transfected cells
HIV-1 transcripts = test: RNA-seq of HIV-1 transcripts in infected TZM-bl cells; assay type: cell-based; conditions: HIV-1NL4-3 MOI 1, 1.5 µM, 2 days
Experimental: At 48 h after infection, the total RNA was extracted using the Maxwell RSC simplyRNA Cells Kit (Promega) according to the manufacturer’s instructions. RNA integrity was evaluated as RNA integrity number >6 using the Agilent 2100 Bio-analyzer (Agilent Technologies, Santa Clara, CA, USA). The cDNA libraries were constructed using TruSeq Stranded mRNA Sample Preparation Kit (Illumina, San Diego, CA, USA) according to the manufacturer’s instructions. Subsequently, these cDNA libraries were sequenced on the Illumina sequencing platform (NovaSeq6000; Illumina) and 150 bp paired-end reads were generated. Trimmomatic (v.0.32) was used to eliminate low-quality reads and adapter sequences from the sequencing data ([64]). Subsequently, the filtered reads were aligned to the HIV-1 genome (accession: AF324493.2) using STAR (v.2.3.0) ([65]). RT-qPCR analyses were performed as previously described ([66]) with some minor modifications. […] After infection, the infected cells were treated with 1.5 µM of the compounds. Forty-eight hours after treatment, the viral mRNA was isolated, converted to cDNA, and quantified through RT-qPCR on a 7500 Real-Time PCR System (Applied Biosystems) using the Power SYBR Green PCR Master Mix (Applied Biosystems). The comparative cycle threshold (Ct) method was used to analyze relative changes (Δ) in gene expression. The ΔCt values were determined using a 7500 Real-Time PCR System Software (Applied Biosystems) normalizing with gapdh, and the gene expression was calculated using the ΔΔCt-method. The primers used in this assay are the following: gag forward, 5′-[…]-3′, gag reverse, 5′-[…]-3′; gapdh forward, 5′-[…]-3′, gapdh reverse, 5′-[…]-3′.

## Cc1[nH]c2ccc(-c3nnc(SCC(=O)N4CCCC4)o3)cc2c1C [Compound 13, 2-((5-(2,3-Dimethyl-1H-indol-5-yl)-1,3,4-oxadiazol-2-yl)thio)-1-(pyrrolidin-1-yl)ethan-1-one]
[1]
  inhibitory effect on reverse transcription of the infected virus: did not exhibit the inhibitory effect
HIV-1 integrase
  inhibitory effect on in vitro integrase activity: did not exhibit the inhibitory effect
Tat protein
  change in nuclear localization of the Tat protein: no changes were observed
HIV-1 transcripts
  read counts of transcripts mapped to the HIV-1 genome: substantially reduced

## Cc1[nH]c2ccc(-c3nnc(SCC(=O)N4CCCCC4)o3)cc2c1C [Compound 9, 2-((5-(2,3-Dimethyl-1H-indol-5-yl)-1,3,4-oxadiazol-2-yl)thio)-1-(piperidin-1-yl)ethan-1-one]
[1]
  inhibitory effect on reverse transcription of the infected virus: did not exhibit the inhibitory effect
HIV-1 integrase
  inhibitory effect on in vitro integrase activity: did not exhibit the inhibitory effect
Tat protein
  change in nuclear localization of the Tat protein: no changes were observed
HIV-1 transcripts
  read counts of transcripts mapped to the HIV-1 genome: substantially reduced

From publication PMC11459959, “Discovery of new acetamide derivatives of 5-indole-1,3,4-oxadiazol-2-thiol as inhibitors of HIV-1 Tat-mediated viral transcription” (Antimicrobial Agents and Chemotherapy, 2024)
